Source: PMC4433173, “Five hTRPA1 Agonists Found in Indigenous Korean Mint, Agastache rugosa” (PLoS ONE, 2015)
Like-named read-outs stand apart in the source and are kept apart here.

Columns and labels:
Format in all cases: cell-based
hTRPA1 [1] = target: T1, hTRPA1 (Homo sapiens, UniProt O75762); assay: Fura-2 AM ratiometric Ca2+ imaging of hTRPA1-Flp-In 293 stable cells; conditions: for activation of hTRPA1 (cytosolic Ca2+ influx): extract 300 μg/mL, AITC 30 μM, 4-allylanisole 1 mM; for activation of hTRPA1 (cytosolic Ca2+ influx) / block of Ca2+ influxes induced by the five active compounds in hTRPA1 cells: p-anisaldehyde 1 mM, L-carveol 300 μM, trans-p-methoxycinnamaldehyde 100 μM, methyl eugenol 300 μM; for block of Ca2+ influxes induced by the five active compounds in hTRPA1 cells / inhibition of Ca2+ responses induced by AITC and the A.rugosa extract in hTRPA1 cells: antagonist: RR 30 μM, HC-030031 100 μM; for block of Ca2+ influxes induced by the five active compounds in hTRPA1 cells: agonists 4-allylanisole 1 mM; for inhibition of Ca2+ responses induced by AITC and the A.rugosa extract in hTRPA1 cells: hTRPA1-Flp-In 293 stable cells
T1 construct: expressed in transfected cells
T1 sequence (O75762 whole entry): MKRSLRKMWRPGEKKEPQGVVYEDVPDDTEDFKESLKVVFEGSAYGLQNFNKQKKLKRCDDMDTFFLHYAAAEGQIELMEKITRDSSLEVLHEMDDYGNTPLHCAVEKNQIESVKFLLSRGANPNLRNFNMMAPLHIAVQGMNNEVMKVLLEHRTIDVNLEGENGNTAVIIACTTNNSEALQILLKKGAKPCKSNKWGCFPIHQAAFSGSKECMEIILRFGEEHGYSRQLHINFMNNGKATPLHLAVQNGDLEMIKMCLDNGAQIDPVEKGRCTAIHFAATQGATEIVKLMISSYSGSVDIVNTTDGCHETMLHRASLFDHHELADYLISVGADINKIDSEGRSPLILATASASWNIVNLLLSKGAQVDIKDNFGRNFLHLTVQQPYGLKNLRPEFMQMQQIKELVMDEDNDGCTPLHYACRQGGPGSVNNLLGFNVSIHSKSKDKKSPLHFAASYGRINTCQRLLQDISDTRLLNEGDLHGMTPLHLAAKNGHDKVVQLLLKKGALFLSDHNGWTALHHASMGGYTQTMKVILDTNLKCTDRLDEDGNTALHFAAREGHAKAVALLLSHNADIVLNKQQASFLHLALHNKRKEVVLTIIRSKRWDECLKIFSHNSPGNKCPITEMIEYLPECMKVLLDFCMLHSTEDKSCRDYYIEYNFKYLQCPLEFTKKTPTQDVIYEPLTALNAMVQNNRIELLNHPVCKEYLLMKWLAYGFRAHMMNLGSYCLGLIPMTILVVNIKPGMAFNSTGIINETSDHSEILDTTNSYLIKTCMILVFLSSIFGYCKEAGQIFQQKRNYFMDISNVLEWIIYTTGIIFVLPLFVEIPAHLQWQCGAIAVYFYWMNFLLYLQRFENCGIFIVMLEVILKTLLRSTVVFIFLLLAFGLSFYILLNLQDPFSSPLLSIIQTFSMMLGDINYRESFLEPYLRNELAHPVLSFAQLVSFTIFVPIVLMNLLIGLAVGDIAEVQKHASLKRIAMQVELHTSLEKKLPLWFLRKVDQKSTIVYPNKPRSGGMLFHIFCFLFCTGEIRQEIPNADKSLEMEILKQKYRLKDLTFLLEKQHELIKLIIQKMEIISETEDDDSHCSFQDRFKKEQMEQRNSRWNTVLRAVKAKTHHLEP

hTRPA1 [2] = target: T1, hTRPA1; assay: Whole-cell patch clamp recording of hTRPA1 currents; conditions: for induction of hTRPA1 inward currents: holding -70 mV, 30 s application, hTRPA1-Flp-In 293 stable cells and HEK293T cells transiently expressing hTRPA1, AITC 30 μM, 4-allylanisole 3 mM, p-anisaldehyde 6 mM, L-carveol 1.8 mM, methyl eugenol 900 μM, trans-p-methoxycinnamaldehyde 1 mM
Procedure: For the transient expression of hTRPA1, HEK293T cells (ATCC: CRL-11268) cultured at 37°C in DMEM supplemented with 10% FBS and 1% penicillin/streptomycin (Invitrogen) were transfected using Lipofectamine 2000 (Invitrogen) and 0.1μg of cDNA encoding tetrameric red fluorescence protein (DsRed) was co-transfected as a marker for successfully transfected cells. The hTRPA1expressing plasmid was generously given to us from Kyeongjin Kang (Sungkyunkwan University School of Medicine, Suwon, Korea). The next day, cells were plated onto poly-L-lysine (0.1 mg/ml, Sigma-Aldrich) coated chips, and the fluorescent cells were studied within 2 days after transfection.
Cells were voltage clamped in the whole-cell recording configuration at room temperature (22–25°C). The resistance of electrodes pulled from glass micropipette capillaries (Sutter Instrument Co., Novato, CA, USA) was 2–2.5 MΩ with >60% compensation of series resistance errors. Fast and slow capacitances were compensated before application of the test pulse. Membrane currents were recorded using a HEKA EPC-10 amplifier with pulse software (HEKA Elektronik, Lambrecht, Germany). The pipette solution used for recording hTRPA1 currents contained 140 mM KCl, 5 mM MgCl2, 10 mM HEPES, 0.1 mM 1,2-bis(2-aminophenoxy)ethane-N,N,N',N'-tetraacetic acid (BAPTA), 3 mM Na2ATP, and 0.1 mM Na3GTP (adjusted to pH 7.4 with KOH). The external Ringer’s solution used for recording hTRPA1 currents contained 160 mM NaCl, 5 mM KCl, 1 mM MgCl2, 2 mM EGTA, 10 mM glucose, and 10 mM HEPES (adjusted to pH 7.4with NaOH). hTRPA1 currents were recorded by holding the cell at -70 mV. The following reagents were obtained: BAPTA, Na2ATP, Na3GTP, and EGTA (Sigma-Alrich), HEPES (Calbiochem, San Diego, CA, USA), and other chemicals (Merck, Township, NJ, USA).

hTRPV1 = target: T2, hTRPV1 (Homo sapiens, UniProt Q8NER1); assay: Fura-2 AM ratiometric Ca2+ imaging of HEK293T cells transiently expressing hTRPV1 (responding cells %); conditions: for activation of hTRPV1 (cytosolic Ca2+ influx, responding cells): extract 300 μg/mL, capsaicin 0.1 μM, ten compounds at 0.1-1 mM; for inhibition of Ca2+ responses induced by the A.rugosa extract in hTRPV1 cells: antagonist: RR 30 μM, CPZ 5 μM, HEK293T cells transiently expressing hTRPV1
T2 construct: host or cells: HEK293T cells, transient transfection with pEAK10-hTRPV1
T2 sequence (Q8NER1 whole entry): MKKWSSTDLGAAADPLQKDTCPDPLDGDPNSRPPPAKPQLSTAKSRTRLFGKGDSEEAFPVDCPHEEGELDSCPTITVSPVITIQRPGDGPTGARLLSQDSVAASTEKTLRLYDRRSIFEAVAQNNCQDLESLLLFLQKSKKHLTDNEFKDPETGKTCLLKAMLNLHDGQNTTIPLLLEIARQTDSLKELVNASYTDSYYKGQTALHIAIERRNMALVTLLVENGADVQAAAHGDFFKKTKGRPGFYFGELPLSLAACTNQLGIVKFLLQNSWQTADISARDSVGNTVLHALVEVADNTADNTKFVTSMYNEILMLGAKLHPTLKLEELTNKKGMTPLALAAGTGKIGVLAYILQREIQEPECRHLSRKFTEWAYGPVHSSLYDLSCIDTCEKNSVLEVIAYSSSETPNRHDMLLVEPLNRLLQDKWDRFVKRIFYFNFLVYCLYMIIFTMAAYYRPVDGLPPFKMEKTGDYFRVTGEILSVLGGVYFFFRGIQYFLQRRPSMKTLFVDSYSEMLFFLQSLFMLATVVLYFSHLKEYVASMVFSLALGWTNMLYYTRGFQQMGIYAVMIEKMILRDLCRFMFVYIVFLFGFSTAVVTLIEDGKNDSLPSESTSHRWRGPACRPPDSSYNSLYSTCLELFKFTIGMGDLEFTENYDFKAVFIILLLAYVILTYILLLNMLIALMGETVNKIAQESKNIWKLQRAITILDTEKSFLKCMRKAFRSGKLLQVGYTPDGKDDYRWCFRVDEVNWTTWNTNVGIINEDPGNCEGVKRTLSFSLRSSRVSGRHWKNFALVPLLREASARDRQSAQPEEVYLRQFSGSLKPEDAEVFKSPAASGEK

hTRPA1 [3] = target: T1, hTRPA1; assay: Cytosolic Ca2+ measurement with Fluo-4 AM on a fluorescence plate reader (FlexStation III), ΔRFU dose-response; conditions: for Hill slope of Ca2+ concentration-response curve: n = 7; for agonist type at hTRPA1 (full / partial): judged from maximum ΔRFU versus AITC
[4] = hTRPA1-Flp-In 293 stable cells, Fluo-4 AM
[5] = hTRPA1-Flp-In 293 stable cells, Fluo-4 AM, ΔRFU, Hill fit, seven independent experiments, mean ± SEM, read-out: EC50 of Ca2+ response

Row | inhibition of Ca2+ responses induced by the A.rugosa extract in hTRPV1 cells (hTRPV1) | block of Ca2+ influxes induced by the five active compounds in hTRPA1 cells (hTRPA1 [1]) | inhibition of Ca2+ responses induced by AITC and the A.rugosa extract in hTRPA1 cells (hTRPA1 [1]) | block of hTRPA1 currents evoked by AITC and five compounds (hTRPA1 [2]; 30 μM RR, pre-incubation 30 s before second application of compounds) | Compound | activation of hTRPA1 (cytosolic Ca2+ influx) (hTRPA1 [1]) | induction of hTRPA1 inward currents (hTRPA1 [2]) | activation of hTRPV1 (cytosolic Ca2+ influx, responding cells) (hTRPV1) | efficacy (maximum ΔRFU) relative to that of AITC (hTRPA1 [3]; [4]) | Hill slope of Ca2+ concentration-response curve (hTRPA1 [3]; [4]) | EC50 (hTRPA1 [3]; [5]) | agonist type at hTRPA1 (full / partial) (hTRPA1 [3]) | EC50 (hTRPA1 [3])
1 |  |  |  |  | C=CCc1ccc(OC)cc1 [4-allylanisole] | activated hTRPA1 | induced inward currents | did not activate hTRPV1 | 59.9% | 1.7±0.3 | 1540 ± 316 µM | partial agonists | 
2 |  |  |  |  | C=CCN=C=S [AITC, allyl isothiocyanate, reference compound] | successfully activated | induced inward currents |  |  | 1.6±0.5 |  |  | 
3 | inhibited |  |  |  | Oc1cc2c(cc1O)CN(C(=S)NCCc1ccc(Cl)cc1)CCC2 [CPZ, capsazepine, reference compound] |  |  |  |  |  |  |  | 
4 |  | mostly blocked | inhibited |  | CC(C)c1ccc(NC(=O)Cn2cnc3c2c(=O)n(C)c(=O)n3C)cc1 [HC-030031, reference compound] |  |  |  |  |  |  |  | 
5 |  |  |  |  | C=C(C)[C@@H]1CC=C(C)C(O)C1 (stereo partly drawn) [L-carveol] | activated hTRPA1 | induced inward currents | did not activate hTRPV1 |  | 2.9±0.5 |  | almost full agonists | 189 ± 26.8 µM
6 | inhibited | mostly blocked | inhibited | completely blocked | N.N.N.N.N.N.N.N.N.N.N.N.N.N.[Cl-].[Cl-].[Cl-].[Cl-].[Cl-].[Cl-].[O-2].[O-2].[Ru+3].[Ru+3].[Ru+4] [RR, ruthenium red, reference compound] |  |  |  |  |  |  |  | 
7 |  |  |  |  | COc1cc(CNC(=O)CCCC/C=C/C(C)C)ccc1O [capsaicin, reference compound] |  |  | significantly stimulated |  |  |  |  | 
8 |  |  |  |  | C=CCc1ccc(OC)c(OC)c1 [methyl eugenol] | activated hTRPA1 | induced inward currents | did not activate hTRPV1 |  | 1.4±0.3 | 160 ± 21.9 µM | almost full agonists | 
9 |  |  |  |  | COc1ccc(C=O)cc1 [p-anisaldehyde] | activated hTRPA1 | induced inward currents | did not activate hTRPV1 | 64.2% | 2.0±0.5 | 546 ± 73 µM | partial agonists | 
10 |  |  |  |  | COc1ccc(/C=C/C=O)cc1 [trans-p-methoxycinnamaldehyde] | activated hTRPA1 | induced inward currents | did not activate hTRPV1 |  | 2.2±0.7 | 29.8 ± 14.9 µM | almost full agonists | 
